The values below come from patent publication US20240245682A1, “ALPHA-V-BETA-8 INTEGRIN INHIBITORS AND USES THEREOF” (Pliant Therapeutics, Inc., priority 2022, published 2024).

pIC50: −log10 of the molar value. Where only a bound is given, the exact number is not on record here.

What all share (test): AlphaScreen proximity-based integrin binding assay with TGF-b1 LAP
Common to all, as to settings: values given as ranges

The target of one assay is human integrin αVβ1 (Homo sapiens, UniProt P05556+P06756). In outline: (§1)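 Purified human integrin incubated with compound, TGF-b1 LAP, biotinylated anti-LAP antibody and acceptor beads for 2 h, then streptavidin donor beads 30 min, room temperature, in 50 mM Tris-HCl pH 7.5, 0.1% BSA, 1 mM CaCl2/MgCl2. AlphaScreen signal (680 nm excitation, 520-620 nm emission); IC50 by four-parameter fit.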
Sequence of human integrin αVβ1 (P06756 31-992 limits assumed): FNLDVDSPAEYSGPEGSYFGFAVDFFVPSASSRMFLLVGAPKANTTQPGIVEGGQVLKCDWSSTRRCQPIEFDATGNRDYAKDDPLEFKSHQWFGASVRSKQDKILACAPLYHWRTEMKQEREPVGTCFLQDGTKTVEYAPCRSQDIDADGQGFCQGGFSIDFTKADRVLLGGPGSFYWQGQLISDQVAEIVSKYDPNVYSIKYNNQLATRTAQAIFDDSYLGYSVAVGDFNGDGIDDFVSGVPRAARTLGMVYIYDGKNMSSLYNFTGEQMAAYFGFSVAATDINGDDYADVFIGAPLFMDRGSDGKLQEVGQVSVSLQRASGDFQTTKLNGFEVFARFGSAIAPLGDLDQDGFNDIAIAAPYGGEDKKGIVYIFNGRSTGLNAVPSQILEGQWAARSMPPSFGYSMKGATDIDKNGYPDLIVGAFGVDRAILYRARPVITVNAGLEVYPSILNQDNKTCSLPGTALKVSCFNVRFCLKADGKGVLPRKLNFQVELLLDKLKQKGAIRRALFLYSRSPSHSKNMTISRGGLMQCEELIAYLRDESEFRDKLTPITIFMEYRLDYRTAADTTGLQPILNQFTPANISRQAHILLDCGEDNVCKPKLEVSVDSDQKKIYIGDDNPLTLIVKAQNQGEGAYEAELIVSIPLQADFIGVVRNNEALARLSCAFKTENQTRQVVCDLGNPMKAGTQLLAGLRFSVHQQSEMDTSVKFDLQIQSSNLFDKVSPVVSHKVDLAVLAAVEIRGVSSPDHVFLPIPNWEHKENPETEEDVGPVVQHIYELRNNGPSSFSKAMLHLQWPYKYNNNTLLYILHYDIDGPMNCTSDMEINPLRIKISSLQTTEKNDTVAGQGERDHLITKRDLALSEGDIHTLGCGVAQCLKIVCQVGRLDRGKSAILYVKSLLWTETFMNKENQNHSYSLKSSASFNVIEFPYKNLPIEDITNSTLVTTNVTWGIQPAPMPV
Sequence of human integrin αVβ1 (P05556 21-728 limits assumed): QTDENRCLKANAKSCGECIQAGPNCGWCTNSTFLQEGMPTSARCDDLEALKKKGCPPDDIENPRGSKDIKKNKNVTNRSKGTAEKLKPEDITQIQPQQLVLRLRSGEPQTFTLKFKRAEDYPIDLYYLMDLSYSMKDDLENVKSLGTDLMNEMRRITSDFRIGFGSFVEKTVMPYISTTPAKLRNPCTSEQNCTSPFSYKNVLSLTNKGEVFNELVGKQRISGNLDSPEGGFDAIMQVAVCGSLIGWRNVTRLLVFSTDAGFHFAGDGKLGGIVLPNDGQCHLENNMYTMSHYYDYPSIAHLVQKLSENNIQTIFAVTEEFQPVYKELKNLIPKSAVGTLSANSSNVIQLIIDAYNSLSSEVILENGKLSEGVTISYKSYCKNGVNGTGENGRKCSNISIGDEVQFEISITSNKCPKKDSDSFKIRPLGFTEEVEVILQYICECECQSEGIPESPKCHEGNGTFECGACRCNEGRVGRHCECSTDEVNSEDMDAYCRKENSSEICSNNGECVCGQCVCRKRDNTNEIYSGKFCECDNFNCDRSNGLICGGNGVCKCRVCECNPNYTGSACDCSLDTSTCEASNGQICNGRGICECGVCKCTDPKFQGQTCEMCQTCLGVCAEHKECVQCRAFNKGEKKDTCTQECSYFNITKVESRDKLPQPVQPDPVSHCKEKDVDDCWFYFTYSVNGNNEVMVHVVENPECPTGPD

A further assay has as its target human integrin αVβ6 (Homo sapiens, UniProt P06756+P18564). The essentials:
as §1

The target in another assay is human integrin αVβ8 (Homo sapiens, UniProt P06756+P26012). In outline: as §1
Sequence of human integrin αVβ8 (P06756 31-992 limits assumed): as the sequence (P06756 31-992 limits assumed) above
Sequence of human integrin αVβ8 (P26012 43-684 limits assumed): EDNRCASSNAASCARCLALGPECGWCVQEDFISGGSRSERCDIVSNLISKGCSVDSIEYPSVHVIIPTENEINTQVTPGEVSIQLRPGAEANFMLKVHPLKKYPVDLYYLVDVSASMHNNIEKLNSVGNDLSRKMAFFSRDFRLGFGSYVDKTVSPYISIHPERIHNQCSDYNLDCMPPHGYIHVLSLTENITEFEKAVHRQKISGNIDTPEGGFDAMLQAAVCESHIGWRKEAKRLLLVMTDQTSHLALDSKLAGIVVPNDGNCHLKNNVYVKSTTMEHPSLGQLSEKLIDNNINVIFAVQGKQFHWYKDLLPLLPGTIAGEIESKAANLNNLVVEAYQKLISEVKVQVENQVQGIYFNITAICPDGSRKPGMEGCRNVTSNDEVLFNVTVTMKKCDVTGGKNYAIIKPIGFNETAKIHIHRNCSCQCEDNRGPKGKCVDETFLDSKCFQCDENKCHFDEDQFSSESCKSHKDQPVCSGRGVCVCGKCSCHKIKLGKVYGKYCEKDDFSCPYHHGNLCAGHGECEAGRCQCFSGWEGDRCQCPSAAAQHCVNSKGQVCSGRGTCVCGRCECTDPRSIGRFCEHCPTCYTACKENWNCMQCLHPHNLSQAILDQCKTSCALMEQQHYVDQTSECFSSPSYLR

Sequence of human integrin αVβ6 (P06756 31-992 limits assumed): as the sequence (P06756 31-992 limits assumed) above
Sequence of human integrin αVβ6 (P18564 22-707 limits assumed): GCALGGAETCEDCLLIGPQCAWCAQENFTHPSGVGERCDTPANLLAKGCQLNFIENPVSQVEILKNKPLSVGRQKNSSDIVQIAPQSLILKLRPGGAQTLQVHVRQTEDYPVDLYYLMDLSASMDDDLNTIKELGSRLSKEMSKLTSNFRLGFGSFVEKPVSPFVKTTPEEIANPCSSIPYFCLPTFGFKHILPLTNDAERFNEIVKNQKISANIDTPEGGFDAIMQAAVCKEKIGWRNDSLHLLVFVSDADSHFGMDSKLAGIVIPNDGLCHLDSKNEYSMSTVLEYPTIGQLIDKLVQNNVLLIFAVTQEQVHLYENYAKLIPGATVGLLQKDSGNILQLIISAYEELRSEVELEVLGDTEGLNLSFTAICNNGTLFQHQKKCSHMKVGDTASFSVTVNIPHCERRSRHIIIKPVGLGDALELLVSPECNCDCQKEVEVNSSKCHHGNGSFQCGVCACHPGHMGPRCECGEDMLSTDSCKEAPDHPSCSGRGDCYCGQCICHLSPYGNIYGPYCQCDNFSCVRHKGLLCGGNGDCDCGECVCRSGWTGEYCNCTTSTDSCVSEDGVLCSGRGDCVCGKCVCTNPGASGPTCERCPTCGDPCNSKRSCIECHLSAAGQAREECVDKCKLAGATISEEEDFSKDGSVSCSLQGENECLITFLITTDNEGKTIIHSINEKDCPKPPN

Turning to `[2H]C1([2H])C([2H])([2H])C1(C(=O)N[C@@H](CCOCCCCc1ccc2c(n1)NCCC2)C(=O)O)c1c(C)ncnc1Cl` [Compound 104, N-(1-(4-chloro-6-methylpyrimidin-5-yl)cyclopropane-1-carbonyl-2,2,3,3-d4)-O-(4-(5,6,7,8-tetrahydro-1,8-naphthyridin-2-yl)butyl)-L-homoserine], the pIC50 at human integrin αVβ1 was over 7.30; at human integrin αVβ6 it was under 6.30; on human integrin αVβ8, over 7.30.

A word on the pIC50: it is the negative decadic logarithm of the IC50, by convention in mol/L.
